The source of these data is patent US12103946B2, “Steroid compounds as Treg modulators and uses thereof” (New York University, priority 2018, dated 2024).

One series is described as follows: physchem. The following applies: pH 8.
Series [1] has as its system naïve CD4+ T cells (Th17 differentiation, IL-17a). The series can be described thus: In vitro Th17 differentiation, IL-17a staining by flow cytometry. The format is cell-based, mouse. To be noted: for Th17 cell differentiation (IL-17a): bile acids 20 μM, 3 days, IL-6 and TGF-β. An excerpt: (§1) Our screen included both primary bile acids, synthesized by the host, and secondary bile acids, produced by bacterial modification of primary bile acids (FIG. 5). Naïve CD4^+ T cells were isolated from wild-type C57BL/6J (B6) mice and cultured with bile acids under Th17 differentiation conditions and, as a counter-screen, Treg differentiation conditions (FIG. 6).
(§2) In Vitro T Cell Culture. Naïve CD4^+ (CD62L^+ CD44^− CD25^− CD4^+) T cells were isolated from the spleens and the lymph nodes of mice of designated genotypes with FACS sorting. For certain experiments, naïve CD4^+ T cells were enriched using naïve CD4^+ T cell isolation kits (Miltenyi). Naïve CD4^+ T cells (40,000 cells) were cultured in a 96-well plate pre-coated with hamster IgG (MP Biomedicals) in T cell medium (RPMI, 10% fetal bovine serum, 25 mM glutamine, 55 μM 2-mercaptoethanol, 100 U/mL penicillin, […] streptomycin) supplemented with 0.25 μg/mL anti-CD3 (clone 145-2C11) and 1 μg/mL anti-CD28 (clone 37.51). For Th0 culture, T cells were cultured with the addition of 100 U/mL of IL-2 (PEPROTECH). For Th1 cell differentiation, T cells were cultured with the addition of 100 U/mL of IL-2, 10 μg/mL of anti-IL-4 (clone 11B11) and 10 ng/mL of IL-12 (PEPROTECH). For Th2 cell differentiation, T cells were cultured with the addition of 10 μg/mL of anti-IFNγ (clone XMG1.2) and 10 ng/mL of IL-4 (R&D Systems). For Th17 cell differentiation, T cells were cultured with the addition of 10 ng/mL of IL-6 (eBioscience) and 0.5 ng/mL of TGF-β (PEPROTECH). For Treg culture, T cells were cultured with the addition of 100 U/mL of IL-2 and various concentrations of TGF-β. […] Bile acids, retinoic acid (Sigma) or mitoQ (Focus Biomolecules), or mitoPQ (Sigma) were added either at 0 or 16 h time points. Compounds with low water solubility were sonicated before adding to the culture. Cells were harvested and assayed by flow cytometry on day 3. For ROS and mitochondrial membrane potential detection, cells cultured for 2 days were incubated with 5 μM of mitoSOX (ThermoFisher), 10 μM of DCFDA (Sigma) or 2 μM of JC-1 (ThermoFisher) for 30 min and assayed with flow cytometry.
(§3) Flow Cytometry. Cells harvested from in vitro culture or in vivo mice experiments were stimulated with 50 ng/mL PMA (Phorbol 12-myristate 13-acetate, Sigma) and 1 μM ionomycin (Sigma) in the presence of GolgiPlug (BD) for 4 h to determine cytokine expression. After stimulation, cells were stained with cell surface marker antibodies and LIVE/DEAD Fixable dye, Aqua, to exclude dead cells, fixed and permeabilized with a FoxP3/Transcription factor staining kit (eBioscience), followed by staining with cytokine- and/or transcription factor-specific antibodies. All flow cytometry analyses were performed on an LSR II flow cytometer (BD) and data were analyzed with FlowJo software (TreeStar).

The target of series [2] is T1, recombinant human RORγt ligand-binding domain (LBD) (Homo sapiens, UniProt P51449).
T1 sequence (P51449 269-508 limits assumed): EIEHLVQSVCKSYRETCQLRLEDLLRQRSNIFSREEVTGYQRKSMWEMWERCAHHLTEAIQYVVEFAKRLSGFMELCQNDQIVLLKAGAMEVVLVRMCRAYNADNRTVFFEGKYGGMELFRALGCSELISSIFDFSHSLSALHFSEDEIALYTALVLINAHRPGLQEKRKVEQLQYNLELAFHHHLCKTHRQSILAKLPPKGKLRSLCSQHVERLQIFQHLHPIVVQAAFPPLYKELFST
The series can be described thus: Microscale thermophoresis assay. To be noted: MST. The method, then:
(§4) We next examined if 3-oxoLCA physically interacts with the RORγt protein in vitro. A microscale thermophoresis (MST) assay was performed with recombinant human RORγt ligand-binding domain (LBD). […] Next, we examined if 3-oxoLCA modulates the transcriptional activity of RORγt. We assayed the effect of the bile acids on firefly luciferase expression directed by a fusion protein of RORγt and Gal4-DBD (DNA-binding domain) in human embryonic kidney (HEK) 293 cells^14.
Microscale Thermophoresis Assay. The binding affinity of the compounds with RORγ ligand-binding domain (LBD) was analyzed by microscale thermophoresis (MST). Purified RORγ-LBD was labeled with the Monolith NT™ Protein Labeling Kit RED (NanoTemper Technologies). Serially-diluted compounds, with concentrations of 1 mM to 20 nM, were mixed with 55 nM labeled RORγ-LBD at room temperature and loaded into Monolith™ standard-treated capillaries. Binding was measured by monitoring the thermophoresis with 20% LED power and ‘Medium’ MST power on a Monolith NT.115 instrument (Nano Temper Technologies) with the following time setting: 5s Fluo, Before; 20s MST On; and 5s Fluo, After. Kd values were fitted using the NT Analysis software (Nano Temper Technologies).
(In MST a laser heats a spot of the sample, and binding alters the fluorescence response.)

For series [3], the system named is naïve CD4+ T cells (Treg differentiation, FoxP3). The series is described as follows: In vitro Treg differentiation, FoxP3 staining by flow cytometry. The format is cell-based, mouse. The following applies: for FoxP3 expression / Treg differentiation in cells lacking CNS3: CNS3 knockout cells.
Source text: To determine if bile acids influence T cell functions, the present inventors performed a small-scale screening assay with a small molecule library comprising secondary bile acids with in vitro Treg differentiation as a read-out. Naïve CD4^+ T lymphocytes were sorted from wild-type B6 mice and cultured in the presence of a TCR stimulus, interleukin 2 (IL-2), and different amounts of TGFβ (optimized for Treg differentiation). Treg differentiation was quantified at the single cell level by staining with an antibody specific for FoxP3, followed by flow cytometry analysis. Retinoic acid, a known enhancer of Treg differentiation, was used as a positive control.
as §1, §2, §3

The next series concerns CD4+ T cells. The following applies: for cell viability: 3-day culture.
Source text: Representative FACS plots of CD4^+ T cells cultured for 3 days and stained intracellularly for FoxP3 (e). Quantification of FoxP3^+ and viable T cells after 3-day culture (f) (n=2/group). n, number of biologically independent samples. Data are representative of two independent experiments (b, d). Data in (c) are shown as the mean±standard deviation.
Naïve CD4^+ T cells were isolated from FoxP3-IRES-GFP mice. d, Flow cytometry of CD4^+ T cells stained intracellularly for FoxP3. Naïve CD4^+ T cells isolated from WT, CNS1, CNS2 or CNS3 knockout mice (n=3/group) were cultured with anti-CD3/28 and IL-2, LCA (20 μM), TGF-β (0.05 ng/ml) and additional retinoic acid (RA; 1 ng/ml). e and f, Flow cytometry (e) and its quantification (f) of CD4^+ T cells stained intracellularly for FoxP3. […] Data are representative of two independent experiments (c, d). Data are shown as the mean±standard deviation by unpaired t-test with 2-tailed p-value.
as §3

In series [4] the test system is fusion protein of RORγt and Gal4-DBD. The series can be described thus: RORγt luciferase reporter assay in HEK293 cells. The format is cell-based, human. To be noted: ML209 2 μM, bile acids 10 μM. The method, then: Data are shown as the mean±standard deviation by unpaired t-test with 2-tailed p-value.
as §4

The conditions of series [5]: cited from earlier work.
Series [6] in a line: Measurement of lipophilicity (octanol/ammonium bicarbonate partitioning, LC-MS). To be noted: n-octanol / 50 mM ammonium bicarbonate, pH 8.
Protocol: (§5) Measurement of lipophilicity. Partitioning Method: 2 μL of 10 mM stock solutions of each target compound was added to a 1 mL each of 50 mM ammonium bicarbonate (pH=8), and 1 mL of n-octanol in an Eppendorf tube. The resulting two-phase mixture was vortexed and then shaken for 18 h at 20° C. The two phases were then carefully separated into the aqueous sample (bottom layer), and organic sample (top-layer) and placed separately in autosampler vials and analyzed by LC-MS/MS. LC-MS Method: a Thermo q-Exactive Plus LC-MS equipped with an Ultimate 3000 HPLC was operated in negative ion mode after optimized to detect the [M− H]^− of the bile acids. […] A Dikma Inspire C8 column (3 μm particle size, 100 mm length, 4.6 mm ID) was used for analysis. Each injection was 5 μL, and a constant flow rate of 0.400 L/min was used. The gradient started at 0% B and was held constant for 2 minutes. Then the mobile phase composition was linearly changed to 100% B over 8 minutes and held at 100% for the following 5 minutes. The mobile phase composition was changed to 0% B over the following 0.1 minutes and the system was allowed to equilibrate to starting conditions over 1.9 minutes. Standards of all targets were used to establish retention times. Better than 2 ppm mass accuracy was obtained on all measurements. The LC-MS analysis was done in triplicate, while the partitioning was done once for each target's [M− H]^− ion. Calculation of log D: the total response of target in octanol was divided by the total response in the aqueous phase to get a partitioning coefficient. Then, log base 10 was taken and reported.
A further series deals with T cells. The series is described as follows: ROS, mitochondrial mass and membrane potential (mitoSOX, DCFDA, MitoTracker, JC-1). The format is cell-based, mouse. The following applies: 48 h. The method, then:
Chromatin obtained from DMSO- and isoalloLCA-treated WT cells was immunoprecipitated with IgG, anti-H3K27Ac, anti-P300, or anti-H3K4me1 antibodies, followed by real-time PCR analysis (n=3/group). Primers targeting FoxP3 promoter (Pro), CNS1, CNS2 and CNS3 region and hsp90 promoter were used for qPCR quantification. Relative enrichment was calculated as fold change relative to the ChIP signal at the FoxP3 promoter of the DMSO-treated control. d and e, Flow cytometry and quantification of CD4^+ T cells stained intracellularly for FoxP3. […] Their mitochondrial and cytoplasmic ROS were measured by mitoSOX (h) and 2′,7′-dichlorofluorescein diacetate (DCFDA) (i), respectively. Total mitochondria mass was measured by MitoTracker (j) and the mitochondrial membrane potential measured by JC-1 dye (k). MFIs of different treatments were normalized as fold changes to those of DMSO control (n=3/group).
In Vitro T Cell Culture. Naïve CD4^+ (CD62L^+ CD44^− CD25^− CD4^+) T cells were isolated from the spleens and the lymph nodes of mice of designated genotypes with FACS sorting. For certain experiments, naïve CD4^+ T cells were enriched using naïve CD4^+ T cell isolation kits (Miltenyi). […]

Read-outs that look alike come from different tables or passages of the source.

Protocol for physchem: as §5

For orientation: logD means lipophilicity at a set pH, counting ionised and neutral species. A high value points to higher lipophilicity. In “physchem”, `C[C@H](CCC(=O)O)[C@H]1CC[C@H]2[C@@H]3CC[C@@H]4C[C@H](O)CC[C@]4(C)[C@H]3CC[C@]12C` [LCA, Lithocholic acid] registered a pH-dependent lipophilicity (logD) at 18 h of 3.6.

As for `C[C@H](CCC(=O)O)[C@H]1CC[C@H]2[C@@H]3CC[C@@H]4CC(=O)CC[C@]4(C)[C@H]3C[C@H](O)[C@]12C` [3-oxoDCA, 3-oxodeoxycholic acid, reference compound], the “Th17 cell differentiation (IL-17a)” value in [1] is reported as “Neither 3-oxoCA nor 3-oxoDCA inhibited Th17 cell differentiation as robustly as 3-oxoLCA”. For the same compound, the “Kd relative to 3-oxoLCA” value in [2] is on record as roughly 20 times.

Turning to `C[C@H](CCC(=O)O)[C@H]1CC[C@H]2[C@@H]3CC[C@H]4C[C@H](O)CC[C@]4(C)[C@H]3CC[C@]12C` [alloLCA, Allolithocholic acid], the “Log D (pH = 8.0)” value is 3.5.

`C[C@H](CCC(=O)O)[C@H]1CC[C@H]2[C@@H]3CC[C@@H]4C[C@@H](O)CC[C@]4(C)[C@H]3CC[C@]12C` [isoLCA, Isolithocholic acid] showed a logD at 18 h in “physchem” of 3.5.

For `C[C@H](CCC(=O)O)[C@H]1CC[C@H]2[C@@H]3[C@H](O)C[C@@H]4CC(=O)CC[C@]4(C)[C@H]3C[C@H](O)[C@]12C` [3-oxoCA, 3-oxocholic acid, reference compound], the “Th17 cell differentiation (IL-17a)” value in series [1] is “Neither 3-oxoCA nor 3-oxoDCA inhibited Th17 cell differentiation as robustly as 3-oxoLCA”. The “Kd relative to 3-oxoLCA” value in series [2] was roughly 20 times.

Take `CCNC(=O)C[C@@H]1N=C(c2ccc(Cl)cc2)c2cc(OC)ccc2-n2c(C)nnc21` [iBET, reference compound]: in [3] (isoalloLCA 20 μM, TGF-β 0.05 ng/mL), the “effect on isoalloLCA-dependent enhancement of FoxP3” value is on record as “prevented isoalloLCA-dependent enhancement of FoxP3 in a dose-dependent manner”.

For `C[C@H](CCC(=O)O)[C@H]1CC[C@H]2[C@@H]3CC[C@H]4C[C@@H](O)CC[C@]4(C)[C@H]3CC[C@]12C` [isoalloLCA, Isoallolithocholic acid], in [1] (20 μM), the “reduction of Th17 cell differentiation” value is roughly 50%. The cell viability entry in the series on CD4+ T cells is “do not significantly affect cell proliferation, cell viability”; in the series with CD4+ T cells (listed as IsoalloLCA), “did not impair cell viability”. Moreover, the logD at 18 h in the series “physchem” came to 2.2.

Regarding `COc1cc(O)c(C(CC(=O)N2C[C@H](C)C[C@H](C)C2)c2ccc3c(c2)OCO3)c(OC)c1` (stereo partly shown) [ML209, reference compound], the RORγt reporter activity result in series [4] was “completely lost RORγt activity”.

For TGF-β: cytokine used for Treg culture, the “FoxP3 expression / Treg differentiation in cells lacking CNS3” value in series [3] is on record as “boosted Treg differentiation in CNS3-deficient cells, albeit with reduced efficiency”.

With `C[C@H](CCC(=O)O)[C@H]1CC[C@H]2[C@@H]3[C@H](O)C[C@@H]4C[C@H](O)CC[C@]4(C)[C@H]3CC[C@]12C` [CDCA, Chenodeoxycholic acid], the “Log D (pH = 8.0), previously reported” value in series [5] is 2.2.

In the case of `C[C@H](CCC(=O)NCC(=O)O)[C@H]1CC[C@H]2[C@@H]3CC[C@H]4C[C@@H](O)CC[C@]4(C)[C@H]3CC[C@]12C` [Glyco-isoalloLCA], the “cytotoxicity compared to isoalloLCA” value in the series on CD4+ T cells (10 or 20 μM) is listed as “enhanced cytotoxicity at 10 or 20 μM compared to isoalloLCA”.

On to `CC[C@H]1[C@@H](O)[C@@H]2[C@H](CC[C@]3(C)[C@@H]([C@H](C)CCC(=O)O)CC[C@@H]23)[C@@]2(C)CC[C@@H](O)C[C@@H]12` [OCA, Obeticholic acid], for which, in series [6], the logD at 18 h amounted to 2.5.

For `C[n+]1ccc(-c2cc[n+](CCCCCCCCCC[P+](c3ccccc3)(c3ccccc3)c3ccccc3)cc2)cc1.[I-].[I-].[I-]` [mitoPQ, mitoParaquat, reference compound], the “FoxP3 expression / Treg differentiation in cells lacking CNS3” value in series [3] was “required the CNS3 enhancer and TGF-β”. Also, in series [3] (bile acids 20 μM, 3 days, anti-CD3/28, IL-2), the “Treg differentiation (FoxP3 expression)” value is “sufficient to enhance mitoROS production and Treg differentiation in a dose-dependent manner”. The “mitochondrial ROS (mitoROS) production” value in the series with T cells is recorded as “sufficient to enhance mitoROS production”.

As to `C[C@H](CCC(=O)O)[C@H]1CC[C@H]2[C@@H]3[C@@H](O)C[C@@H]4C[C@H](O)CC[C@]4(C)[C@H]3CC[C@]12C` [UDCA, Ursodeoxycholic acid], the “Log D (pH = 8.0), previously reported” value in series [5] was 2.2.

The compound `C[C@H](CCC(=O)O)[C@H]1CC[C@H]2[C@@H]3CC[C@@H]4C[C@H](O)CC[C@]4(C)[C@H]3C[C@H](O)[C@]12C` [DCA, Deoxycholic acid] registered a pH-dependent lipophilicity (logD) at 18 h in [6] of 2.7.
